# Test results reported in US20030113810A1, “Novel assay” (priority 2000, published 2003).
# pEC50: −log10 of the molar value. Like-named read-outs stand apart in the source and are kept apart here.
# How the values were obtained:
# [1] = biological target: T1, rGPR41 (Rattus norvegicus, UniProt B2GV46); assay: Yeast FUS1-lacZ/FUS1-HIS3 reporter assay, rGPR41 in S. cerevisiae MMY22 (Gpa1/Gαo), FDG substrate; type: cell-based; set-up: expressed in transfected cells; host or cells: S. cerevisiae MMY22 (A1, A5; Gpa1/Gαo integrated) or MMY11 + pRS314-Gpa1/Gαo (A4), transformed with p426GPD-rGPR41
# T1 sequence (B2GV46 1-319): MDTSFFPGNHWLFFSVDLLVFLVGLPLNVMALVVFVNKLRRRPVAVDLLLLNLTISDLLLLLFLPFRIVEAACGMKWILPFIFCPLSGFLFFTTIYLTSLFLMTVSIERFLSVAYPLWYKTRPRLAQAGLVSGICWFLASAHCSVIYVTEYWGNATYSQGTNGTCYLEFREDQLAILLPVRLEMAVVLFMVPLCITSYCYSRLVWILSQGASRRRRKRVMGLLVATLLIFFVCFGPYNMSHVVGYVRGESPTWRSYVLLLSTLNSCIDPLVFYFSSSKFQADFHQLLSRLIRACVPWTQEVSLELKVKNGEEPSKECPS
# Method: A study was carried out of the function of rGPR41 following expression in S. cerevisiae MMY22, which is a derivative of S. cerevisiae MMY11 containing a copy of the gene encoding the Gpa1/Gαo transplant chimera described above (in which the 5 C-terminal amino acids of Gpa1 are replaced with the 5 C-terminal amino acids of Gαo) integrated into the genome. To do this, a cassette comprising the GPA1 promoter, nucleotide sequence encoding Gpa1/Gαo, and the terminator was sub-cloned from pRS314-Gpa1/Gαo into the yeast integrating plasmid pRS304 (Sikorski and Hieter, 1989). The resulting plasmid pRS304-Gpa1/Gαo was transformed into MMY11 and integrated into the trp1 locus creating MMY22.
# The rGPR41 expression construct described above, p462GPD-rGPR41 was introduced into MMY22 by transformation as described above. Four separate transformants were tested for reporter gene activation in response to propionate. Assays for FUS1-lacZ and FUS1-HIS3 induction were performed as described, except the β-galactosidase (lacZ) substrate fluorescein di-β-D-galactopyranoside (FDG) was used in place of CPRG, and 3-aminotriazole concentration was 5 mM. Also, black-walled 96-well microtitre plates were used, and fluorescence resulting from degradation of FDG to fluorescein due to β-galactosidase was determined using a Spectrofluor microtitre plate reader (Tecan)(excitation wavelength: 485 nm; emmision wavelength: 535 nm).
# A series of carboxylic acids and other compounds related to propionate were tested for the ability to activate rGPR41. Experiments were performed as described above, using yeast cells of strain MMY22 transformed with rGPR41 expression plasmid p462GPD-rGPR41, except that the agonist propionate was replaced with one of a series of other compounds, which are listed in table 2 below.
# In vivo assays of reporter gene induction were carried out by suspending MMY11 cells transformed as described above to a density of 0.02 OD600/ml in 200 μl SC-glucose (2%) medium lacking tryptophan, uracil and histidine. This medium was supplemented with 10 mM 3-aminotriazole and the β-galactosidase (lacZ) substrate chlorophenolred-β-D-galactopyranoside (CPRG; Boehringer Mannheim) to a concentration of 0.1 mg/ml. Additionally the medium was supplemented with various concentrations of the agonist ligand, propionate (sodium propionate, pH 7.0). To visualise the yellow to red colour change reaction occurring on degradation of CPRG due to β-galactosidase, the medium was buffered to pH 7 with 0.1 M sodium phosphate. The assay was conducted in flat-bottomed sterile 96-well microtitre plates. Plates were incubated for 24 hours at 30° C. without agitation, and absorbance at 570 nm was determined using a Spectrofluor microtitre plate reader (Tecan).
# [2] = system: isoprenaline-stimulated adenylate cyclase activity in rat primary adipocytes; settings: 10 minutes at 37° C., FIG. 11
# Method: Isoprenaline stimulates adenylate cyclase activity and subsequently the process of lipolysis following activation of β-adrenoceptors and G,a in adipocytes.
# A reaction mixture of 500 μl was used in a 1.5 ml eppendorf tube. The reaction was started by the addition of 100 μl of adipocytes to a 400 μl volume of Krebs buffer containing isoprenaline and test compound. Following the addition of the adipocytes the reaction tube was incubated at 37° C. for 10 minutes. The reaction was stopped with the addition of 500 μl of a stop mixture containing methanol (1 part), chloroform (2 parts) and 0.1N HCl (0.1 part). Following the addition of the stop mixture each tube was vortexed and then centifuged at 5000 rpm for 5 minutes. 300 μl of the supernatent was removed and stored at −20° C. The levels of cAMP in each samples were determined using an ELISA kit from R&D systems (DE0355).
# [3] = biological target: T2, human GPR41 (Homo sapiens, UniProt O14843)
# T2 sequence (O14843 1-346): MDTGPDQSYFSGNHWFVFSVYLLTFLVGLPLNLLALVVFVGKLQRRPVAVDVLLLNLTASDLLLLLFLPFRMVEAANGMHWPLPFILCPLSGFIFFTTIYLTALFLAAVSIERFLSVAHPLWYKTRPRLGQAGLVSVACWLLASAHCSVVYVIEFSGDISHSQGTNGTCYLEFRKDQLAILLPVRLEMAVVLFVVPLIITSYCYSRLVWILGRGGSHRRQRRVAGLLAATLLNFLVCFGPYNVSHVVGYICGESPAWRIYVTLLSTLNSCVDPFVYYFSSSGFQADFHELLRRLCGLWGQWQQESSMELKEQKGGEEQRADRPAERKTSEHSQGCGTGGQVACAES
# Method: HEK293T cells (HEK293 cells stably expressing the SV40 large T-antigen) were maintained in DMEM containing 10% (v/v) foetal calf serum and 2 mM glutamine. Cells were seeded in 60 mm culture dishes and grown to 60-80% confluency (18-24 h) prior to transfection with pCDNA3 containing the relevant DNA species using Lipofectamine reagent. For transfection, 3 μg of DNA was mixed with 10 μl of Lipofectamine in 0.2 ml of Opti-MEM (Life Technologies Inc.) and was incubated at room temperature for 30 min prior to the addition of 1.6 ml of Opti-MEM. Cells were exposed to the Lipofectamine/DNA mixture for 5 h and 2 ml of 20% (v/v) newborn calf serum in DMEM was then added. Cells were harvested 48-72 h after transfection.
# Plasma membrane-containing P2 particulate fractions were prepared from cell pastes frozen at −80° C. after harvest. All procedures were carried out at 4° C. Cell pellets were resuspended in 1 ml of 10 mM Tris-HCl and 0.1 mM EDTA, pH 7.5 (buffer A) and by homogenisation for 20 s with a polytron homogeniser followed by passage (5 times) through a 25-guage needle. Cell lysates were centrifuged at 1,000 g for 10 min in a microcentrifuge to pellet the nuclei and unbroken cells and P2 particulate fractions were recovered by microcentrifugation at 16,000 g for 30 min. P2 particulate fractions were resuspended in buffer A and stored at −80° C. until required. Protein concentrations were determined using the bicinchoninic acid (BCA) procedure (4) using BSA as a standard.
# Assays were performed in 96-well format using a method modified from Wieland and Jakobs, 1994. Membranes (10 μg per point) were diluted to 0.083 mg/ml in assay buffer (20 mM HEPES, 100 mM NaCl, 10 mM MgCl2, pH7.4) supplemented with saponin (10 mg/l) and pre-incubated with 40 μM GDP. […] Non-specific binding was determined by the inclusion of 0.6 mM GTP. […] Plates were centrifuged at 1500 g for 5 min and bound [^35S]GTPγS was determined by scintillation counting on a Wallac 1450 microbeta Trilux scintillation counter.
# [4] = biological target: T1, rGPR41; assay: Yeast reporter gene induction, MMY11 cells with p426GPD-rGPR41 and pRS314-Gpa1/Gαo, CPRG substrate; type: cell-based; settings: MMY11, Gpa1/Gαo transplant; FIG. 6
# Description: Significant absorbance at 570 nm, corresponding to induction of FUS1-lacZ and FUS1-HIS3 reporter genes, was detected for MMY11 cells containing p426GPD-rGPR41 in combination with pRS314-Gpa1/Gαo. These cells express rGPR41 in combination with a Gα subunit identical to Gpa1 but in which the 5 C-terminal amino acids are replaced with the 5 C-terminal amino acids of the mammalian Gα subunit, Gαo. This response is dependant on the presence of the agonist ligand propionate since no induction is detected in the absence of propionate (FIG. 6). […] Of the other Gα subunits tested, the pRS314-Gpa1/Gα12 and pRS314-Gpa1/Gα13 transplants supported weak rGPR41 coupling detectable after 48 hrs incubation (data not shown), and with no other Gα subunit could ligand responses of rGPR41 be detected.
# The yeast strain MMY11 has been described previously (Olesnicky et al, 1999). […]
# In vivo assays of reporter gene induction were carried out by suspending MMY11 cells transformed as described above to a density of 0.02 OD600/ml in 200 μl SC-glucose (2%) medium lacking tryptophan, uracil and histidine. […] Plates were incubated for 24 hours at 30° C. without agitation, and absorbance at 570 nm was determined using a Spectrofluor microtitre plate reader (Tecan).
# [5] = yeast MMY22 with p462GPD-rGPR41, FDG fluorescence, compounds as salt solutions buffered to pH 7.0, read-out: Agonism @ rGPR41 Approx. EC50
SMILES,"pEC50 [1, 5]",isoprenaline-amplified cAMP levels [2],stimulation of [35S]GTPγS binding [3],induction of FUS1-lacZ and FUS1-HIS3 reporter genes (absorbance at 570 nm) [4],"fluorescence, activation of the pheromone response pathway by rGPR41 ([1]; MMY22, four transformants, FIG. 7)","pEC50 ([1]; yeast MMY22, text of Example 8, read-out: EC50 value at rGPR41)","stimulation of [35S]GTPγS binding ([3]; membranes of HEK293T cells, human GPR41 + Go1α, FIG. 2-4)"
CC(=O)O [Acetate],~3.00,reduction of isoprenaline-amplified cAMP levels,stimulation of [^35S]GTPγS binding,,,,
CCC(=O)O [Propionate],~5.30,,,can be activated by propionate,dependent on the concentration of propionate,5.30,most potent and efficacious
